Here are results for one compound from paper PMC11768629, “Potential Interaction of Pinocembrin with Drug Transporters and Hepatic Drug-Metabolizing Enzymes” (Pharmaceuticals, 2025).

The subject of one data set is hOAT3-MDCK cells. Briefly: Cell viability assay (MTT) in hOAT3-MDCK cells. To be noted: tenofovir 5 µM, 48 h. The format is cell-based, canine. The procedure:
(§1) The hOAT1-MDCK cells and hOAT3-MDCK cells were treated with 1, 10, and 50 μM pinocembrin for 24 h, followed by a measurement of ^3H-PAH and ^3H-estrone sulfate cellular accumulation. […] The inhibitory effect of pinocembrin occurred in a concentration-dependent manner.
(§2) We determined whether the inhibitory effect of pinocembrin on hOAT1 and hOAT3. We studied whether pinocembrin could reduce the renal toxicity of tenofovir, a substrate of hOAT1 and hOAT3 known for inducing renal tubular dysfunction.
(§3) The confluent cells in 96-well plates were treated with pinocembrin for 48 h at 37 °C. After that, the cells were incubated with 0.5 mg/mL MTT solution for four hours. The MTT solution was removed, and DMSO (100 µL) was added to dissolve the crystal formazan. The formazan content was detected at a wavelength of 570 nm using a microplate reader. Cell viability was reported as a percentage of the vehicle-treated cells.

The test system of a further data set is hOAT1-MDCK cells. Put plainly: Cell viability assay (MTT) in hOAT1-MDCK cells. To be noted: tenofovir 5 µM, 48 h. The format is cell-based, canine. The procedure: as §1, §2, §3

Turning to `C[C@H](Cn1cnc2c(N)ncnc21)OCP(=O)(O)O` [tenofovir], the cell viability entry with hOAT3-MDCK cells is recorded as “did not affect the viability”; with hOAT1-MDCK cells, “significantly reduced the cell viability”.
